Laboratory results taken from ChEMBL document CHEMBL4304804, “Synthesis and biological evaluation of calycanthaceous alkaloid analogs” (Bioorg Med Chem, 2019).
≈ marks a conversion by molar mass, not a printed value. Calls of active or inactive are those of the source. The calls are words filed in the database; no cut-off is given here.

Columns and labels:
Pseudomonas aeruginosa = assay: Antibacterial activity against Pseudomonas aeruginosa assessed as reduction in bacterial cell growth incubated for 24 hrs by filter paper assay; type: functional
Candida tropicalis = assay: Antifungal activity against Candida tropicalis assessed as reduction in fungal cell growth incubated for 48 hrs by serial dilution method; type: functional
Verticillium dahliae [1] = assay: Antifungal activity against Verticillium dahliae assessed as reduction in fungal cell growth at 62.5 ug/ml incubated for 48 hrs by serial dilution method relative to control; type: functional
Bacillus cereus = assay: Antibacterial activity against Bacillus cereus assessed as reduction in bacterial cell growth incubated for 24 hrs by filter paper assay; type: functional
Verticillium dahliae [2] = assay: Antifungal activity against Verticillium dahliae assessed as reduction in fungal cell growth at 250 ug/ml incubated for 48 hrs by serial dilution method relative to control; type: functional
Aspergillus niger = assay: Antifungal activity against Aspergillus niger assessed as reduction in fungal cell growth incubated for 48 hrs by serial dilution method; type: functional
Ralstonia solanacearum [3] = assay: Antibacterial activity against Ralstonia solanacearum assessed as reduction in bacterial cell growth incubated for 24 hrs by filter paper assay; type: functional
Candida [4] = assay: Antifungal activity against […] assessed as reduction in fungal cell growth incubated for 48 hrs by serial dilution method; type: functional
Penicillium citrinum = assay: Antifungal activity against Penicillium citrinum assessed as reduction in fungal cell growth incubated for 48 hrs by serial dilution method; type: functional
Fusarium oxysporum = assay: Antifungal activity against Fusarium oxysporum assessed as reduction in fungal cell growth incubated for 48 hrs by serial dilution method; type: functional
Verticillium dahliae [5] = assay: Antifungal activity against Verticillium dahliae assessed as reduction in fungal cell growth incubated for 48 hrs by serial dilution method; type: functional
Cryptococcus neoformans = assay: Antifungal activity against Cryptococcus neoformans assessed as reduction in fungal cell growth incubated for 48 hrs by serial dilution method; type: functional
Aspergillus flavus = assay: Antifungal activity against Aspergillus flavus assessed as reduction in fungal cell growth incubated for 48 hrs by serial dilution method; type: functional
Curvularia lunata [6] = assay: Antifungal activity against Curvularia lunata assessed as reduction in fungal cell growth incubated for 48 hrs by serial dilution method; type: functional
[7] = system: Fusarium oxysporum f. sp. vasinfectum; assay: Antifungal activity against Fusarium oxysporum sp. vasinfectum assessed as reduction in fungal cell growth incubated for 48 hrs by serial dilution method; type: functional
Verticillium dahliae [8] = assay: Antifungal activity against Verticillium dahliae assessed as reduction in fungal cell growth at 125 ug/ml incubated for 48 hrs by serial dilution method relative to control; type: functional
Acetylcholinesterase = Acetylcholinesterase (Electrophorus electricus, UniProt O42275); assay: Inhibition of electric eel AChE by Ellman's colorimetry
Sequence of Acetylcholinesterase (O42275 whole entry): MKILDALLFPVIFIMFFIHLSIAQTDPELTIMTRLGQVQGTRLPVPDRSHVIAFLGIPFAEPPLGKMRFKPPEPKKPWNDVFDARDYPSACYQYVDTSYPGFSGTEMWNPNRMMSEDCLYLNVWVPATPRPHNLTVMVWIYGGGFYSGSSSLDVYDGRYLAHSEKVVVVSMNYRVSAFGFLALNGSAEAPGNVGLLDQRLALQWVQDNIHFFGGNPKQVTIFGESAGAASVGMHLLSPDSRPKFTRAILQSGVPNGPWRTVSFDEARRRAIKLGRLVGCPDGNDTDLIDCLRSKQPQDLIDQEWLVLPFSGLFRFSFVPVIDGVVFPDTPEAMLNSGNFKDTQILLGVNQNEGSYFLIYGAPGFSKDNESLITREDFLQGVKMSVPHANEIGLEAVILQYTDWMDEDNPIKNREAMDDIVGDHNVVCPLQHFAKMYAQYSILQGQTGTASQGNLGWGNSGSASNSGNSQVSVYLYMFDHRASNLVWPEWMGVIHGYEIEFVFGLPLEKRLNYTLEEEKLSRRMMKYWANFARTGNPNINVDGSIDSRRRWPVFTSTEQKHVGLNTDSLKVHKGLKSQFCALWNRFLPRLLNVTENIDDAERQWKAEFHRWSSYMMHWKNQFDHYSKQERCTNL

Staphylococcus aureus = assay: Antibacterial activity against Staphylococcus aureus assessed as reduction in bacterial cell growth incubated for 24 hrs by filter paper assay; type: functional
Verticillium dahliae [9] = assay: Antifungal activity against Verticillium dahliae assessed as reduction in fungal cell growth at 31.25 ug/ml incubated for 48 hrs by serial dilution method relative to control; type: functional
[10] = system: Colletotrichum orbiculare; assay: Antifungal activity against Colletotrichum orbiculare assessed as reduction in fungal cell growth incubated for 48 hrs by serial dilution method; type: functional
Cytospora = assay: Antifungal activity against Cytospora juglandis assessed as reduction in fungal cell growth incubated for 48 hrs by serial dilution method; type: functional
Escherichia coli = assay: Antibacterial activity against Escherichia coli assessed as reduction in bacterial cell growth incubated for 24 hrs by filter paper assay; type: functional
Ralstonia solanacearum [11] = assay: Antibacterial activity against Ralstonia solanacearum assessed as reduction in bacterial cell growth at 500 ug/ml incubated for 24 hrs by filter paper assay relative to control; type: functional
Candida [12] = assay: Antifungal activity against […] assessed as reduction in fungal spore germination at 500 ug/ml relative to control; type: functional
Curvularia lunata [13] = assay: Antifungal activity against Curvularia lunata assessed as reduction in fungal cell growth at 62.5 ug/ml incubated for 48 hrs by serial dilution method relative to control; type: functional
Curvularia lunata [14] = assay: Antifungal activity against Curvularia lunata assessed as reduction in fungal spore germination at 250 ug/ml relative to control; type: functional
Curvularia lunata [15] = assay: Antifungal activity against Curvularia lunata assessed as reduction in fungal cell growth at 250 ug/ml incubated for 48 hrs by serial dilution method relative to control; type: functional
Curvularia lunata [16] = assay: Antifungal activity against Curvularia lunata assessed as reduction in fungal spore germination at 125 ug/ml relative to control; type: functional
Curvularia lunata [17] = assay: Antifungal activity against Curvularia lunata assessed as reduction in fungal cell growth at 125 ug/ml incubated for 48 hrs by serial dilution method relative to control; type: functional
[18] = target: Acetylcholinesterase (Electrophorus electricus) (UniProt O42275); assay: Inhibition of electric eel AChE by at 1 mg/ml Ellman's colorimetry relative to control
Sequence of Acetylcholinesterase (Electrophorus electricus) (O42275 24-633 limits assumed): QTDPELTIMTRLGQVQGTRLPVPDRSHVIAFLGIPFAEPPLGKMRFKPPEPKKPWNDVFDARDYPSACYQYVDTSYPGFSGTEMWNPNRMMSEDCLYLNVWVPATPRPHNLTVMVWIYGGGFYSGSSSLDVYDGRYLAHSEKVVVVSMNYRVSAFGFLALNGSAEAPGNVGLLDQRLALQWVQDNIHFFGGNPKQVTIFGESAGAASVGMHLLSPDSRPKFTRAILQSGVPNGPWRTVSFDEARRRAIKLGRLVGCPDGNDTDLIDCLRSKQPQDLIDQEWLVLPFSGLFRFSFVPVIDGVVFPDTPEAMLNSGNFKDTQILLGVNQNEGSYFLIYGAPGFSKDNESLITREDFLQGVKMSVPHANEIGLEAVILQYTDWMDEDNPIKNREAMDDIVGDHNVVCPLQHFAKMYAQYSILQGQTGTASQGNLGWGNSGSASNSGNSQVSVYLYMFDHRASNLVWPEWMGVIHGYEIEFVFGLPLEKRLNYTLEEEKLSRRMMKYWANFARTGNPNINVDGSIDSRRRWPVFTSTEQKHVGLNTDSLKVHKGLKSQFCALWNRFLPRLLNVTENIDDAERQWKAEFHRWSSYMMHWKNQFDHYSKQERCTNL

SMILES: CCCCCCCC(=O)N1CCC2(Cc3ccccc3C)c3ccccc3N(Cc3ccccc3C)C12 (configuration not stated)
- MIC (Pseudomonas aeruginosa): 125 µg/mL (≈ 253 µM)
- MIC (Candida tropicalis): 125 µg/mL (≈ 253 µM)
- inhibition at 62.5 µg/mL (Verticillium dahliae [1]): 47%
- MIC (Bacillus cereus): 62.5 µg/mL (≈ 126 µM)
- inhibition at 250 µg/mL (Verticillium dahliae [2]): 67.7%
- MIC (Aspergillus niger): 250 µg/mL (≈ 505 µM)
- MIC (Ralstonia solanacearum [3]): 62.5 µg/mL (≈ 126 µM)
- MIC (Candida [4]): 31.2 µg/mL (≈ 63.2 µM)
- MIC (Penicillium citrinum): 250 µg/mL (≈ 505 µM)
- MIC (Fusarium oxysporum): 125 µg/mL (≈ 253 µM)
- MIC (Verticillium dahliae [5]): 31.2 µg/mL (≈ 63.2 µM)
- MIC (Cryptococcus neoformans): 62.5 µg/mL (≈ 126 µM)
- MIC (Aspergillus flavus): 250 µg/mL (≈ 505 µM)
- MIC (Curvularia lunata [6]): 125 µg/mL (≈ 253 µM)
- MIC [7]: 250 µg/mL (≈ 505 µM)
- inhibition at 125 µg/mL (Verticillium dahliae [8]): 63.4%
- IC50 (Acetylcholinesterase): 16.5 µM
- MIC (Staphylococcus aureus): 125 µg/mL (≈ 253 µM)
- inhibition at 31.25 µg/mL (Verticillium dahliae [9]): 46.2%
- MIC [10]: 250 µg/mL (≈ 505 µM)
- MIC (Cytospora): 125 µg/mL (≈ 253 µM)
- MIC (Escherichia coli): 125 µg/mL (≈ 253 µM)

SMILES: CCCCCCCC(=O)N1CCCC2(O)c3ccccc3N(C)C12 (configuration not stated)
- MIC (Pseudomonas aeruginosa): 250 µg/mL (≈ 756 µM)
- MIC (Candida tropicalis): inactive
- MIC (Bacillus cereus): 250 µg/mL (≈ 756 µM)
- inhibition at 500 µg/mL (Ralstonia solanacearum [11]): 100%
- MIC (Aspergillus niger): 250 µg/mL (≈ 756 µM)
- MIC (Ralstonia solanacearum [3]): 31.2 µg/mL (≈ 94.6 µM)
- MIC (Candida [4]): inactive
- MIC (Penicillium citrinum): inactive
- MIC (Fusarium oxysporum): inactive
- MIC (Verticillium dahliae [5]): 62.5 µg/mL (≈ 189 µM)
- MIC (Cryptococcus neoformans): 125 µg/mL (≈ 378 µM)
- MIC (Aspergillus flavus): 125 µg/mL (≈ 378 µM)
- MIC (Curvularia lunata [6]): 125 µg/mL (≈ 378 µM)
- MIC [7]: 250 µg/mL (≈ 756 µM)
- IC50 (Acetylcholinesterase): 0.363 µM
- MIC (Staphylococcus aureus): 62.5 µg/mL (≈ 189 µM)
- MIC [10]: 250 µg/mL (≈ 756 µM)
- MIC (Cytospora): 125 µg/mL (≈ 378 µM)
- MIC (Escherichia coli): 62.5 µg/mL (≈ 189 µM)

SMILES: CCCCCCCC(=O)N1CCC2(Cc3cccc(C)c3)c3ccccc3N(Cc3cccc(C)c3)C12 (configuration not stated)
- MIC (Pseudomonas aeruginosa): 125 µg/mL (≈ 253 µM)
- MIC (Candida tropicalis): 125 µg/mL (≈ 253 µM)
- MIC (Bacillus cereus): 62.5 µg/mL (≈ 126 µM)
- MIC (Aspergillus niger): 250 µg/mL (≈ 505 µM)
- MIC (Ralstonia solanacearum [3]): 62.5 µg/mL (≈ 126 µM)
- MIC (Candida [4]): 31.2 µg/mL (≈ 63.2 µM)
- MIC (Penicillium citrinum): 250 µg/mL (≈ 505 µM)
- MIC (Fusarium oxysporum): 125 µg/mL (≈ 253 µM)
- MIC (Verticillium dahliae [5]): 62.5 µg/mL (≈ 126 µM)
- MIC (Cryptococcus neoformans): 125 µg/mL (≈ 253 µM)
- MIC (Aspergillus flavus): 250 µg/mL (≈ 505 µM)
- MIC (Curvularia lunata [6]): 125 µg/mL (≈ 253 µM)
- MIC [7]: 250 µg/mL (≈ 505 µM)
- inhibition at 500 µg/mL (Candida [12]): 87.5%
- IC50 (Acetylcholinesterase): 87.9 µM
- MIC (Staphylococcus aureus): 125 µg/mL (≈ 253 µM)
- MIC [10]: 250 µg/mL (≈ 505 µM)
- MIC (Cytospora): 125 µg/mL (≈ 253 µM)
- MIC (Escherichia coli): 250 µg/mL (≈ 505 µM)

SMILES: CCCCCCC(=O)N1CCCC2(O)c3ccccc3N(C)C12 (configuration not stated)
- MIC (Pseudomonas aeruginosa): 250 µg/mL (≈ 790 µM)
- inhibition at 62.5 µg/mL (Curvularia lunata [13]): 15.5%
- MIC (Candida tropicalis): 250 µg/mL (≈ 790 µM)
- MIC (Bacillus cereus): 250 µg/mL (≈ 790 µM)
- MIC (Aspergillus niger): 250 µg/mL (≈ 790 µM)
- MIC (Ralstonia solanacearum [3]): 62.5 µg/mL (≈ 198 µM)
- MIC (Candida [4]): inactive
- MIC (Penicillium citrinum): inactive
- MIC (Fusarium oxysporum): 250 µg/mL (≈ 790 µM)
- MIC (Verticillium dahliae [5]): 62.5 µg/mL (≈ 198 µM)
- MIC (Cryptococcus neoformans): 125 µg/mL (≈ 395 µM)
- MIC (Aspergillus flavus): inactive
- MIC (Curvularia lunata [6]): 62.5 µg/mL (≈ 198 µM)
- MIC [7]: 250 µg/mL (≈ 790 µM)
- inhibition at 250 µg/mL (Curvularia lunata [14]): 43.7%
- IC50 (Acetylcholinesterase): 4.2 µM
- MIC (Staphylococcus aureus): 62.5 µg/mL (≈ 198 µM)
- inhibition at 250 µg/mL (Curvularia lunata [15]): 77.7%
- MIC [10]: 250 µg/mL (≈ 790 µM)
- MIC (Cytospora): 125 µg/mL (≈ 395 µM)
- inhibition at 125 µg/mL (Curvularia lunata [16]): 76.2%
- MIC (Escherichia coli): 125 µg/mL (≈ 395 µM)
- inhibition at 125 µg/mL (Curvularia lunata [17]): 31.3%

SMILES: Cc1ccccc1CN1c2ccccc2C2(Cc3ccccc3C)CCN(S(=O)(=O)c3ccccc3)C12 (configuration not stated)
- MIC (Pseudomonas aeruginosa): inactive
- MIC (Candida tropicalis): inactive
- MIC (Bacillus cereus): 125 µg/mL (≈ 246 µM)
- inhibition [18]: > 80%
- MIC (Aspergillus niger): 250 µg/mL (≈ 491 µM)
- MIC (Ralstonia solanacearum [3]): inactive
- MIC (Candida [4]): 250 µg/mL (≈ 491 µM)
- MIC (Penicillium citrinum): inactive
- MIC (Fusarium oxysporum): 250 µg/mL (≈ 491 µM)
- MIC (Verticillium dahliae [5]): 125 µg/mL (≈ 246 µM)
- MIC (Cryptococcus neoformans): inactive
- MIC (Aspergillus flavus): 250 µg/mL (≈ 491 µM)
- MIC (Curvularia lunata [6]): inactive
- MIC [7]: 250 µg/mL (≈ 491 µM)
- IC50 (Acetylcholinesterase): 0.275 µM
- MIC (Staphylococcus aureus): inactive
- MIC [10]: 250 µg/mL (≈ 491 µM)
- MIC (Cytospora): 250 µg/mL (≈ 491 µM)
- inhibition (Curvularia lunata [16]): Active
- MIC (Escherichia coli): inactive

SMILES: Cc1ccc(C(=O)N2CCCC3(O)c4ccccc4N(C)C23)cc1 (configuration not stated)
- MIC (Pseudomonas aeruginosa): 250 µg/mL (≈ 775 µM)
- MIC (Candida tropicalis): inactive
- MIC (Bacillus cereus): inactive
- inhibition [18]: > 80%
- MIC (Aspergillus niger): inactive
- MIC (Ralstonia solanacearum [3]): inactive
- MIC (Candida [4]): inactive
- MIC (Penicillium citrinum): inactive
- MIC (Fusarium oxysporum): inactive
- MIC (Verticillium dahliae [5]): 250 µg/mL (≈ 775 µM)
- MIC (Cryptococcus neoformans): inactive
- MIC (Aspergillus flavus): inactive
- MIC (Curvularia lunata [6]): inactive
- MIC [7]: inactive
- IC50 (Acetylcholinesterase): 2.85 µM
- MIC (Staphylococcus aureus): inactive
- MIC [10]: inactive
- MIC (Cytospora): inactive
- MIC (Escherichia coli): inactive
